Target: T1, Cholesterol Epoxide Hydrolase (ChEH) (Homo sapiens, UniProt Q15125+Q9UBM7)
T1 construct: endogenous in cells; host or cells: MCF-7
Test: Cholesterol Epoxide Hydrolase (ChEH) activity in MCF-7 cells, [14C]5,6α-EC metabolism by TLC
Type: cell-based
Details: 1 μM, 24 h, [14C]5,6α-EC 0.6 μM
Source text: The compounds 5,6α-epoxycholesterol (5,6α-EC) and 5,6p-epoxycholesterol (5,6p-EC) are oxysterols involved in the anticancer pharmacology of tamoxifen, a widely used antitumor drug. Both are metabolized to cholestane-3β,5α,6β-triol (CT) by the enzyme cholesterol-5,6-epoxide hydrolase (ChEH), and CT is metabolized by the enzyme HSD11B2 (11β-hydroxysteroid dehydrogenase 2) to 6-oxocholestane-3β,5α-diol (OCDO), a tumor-promoting oncosterone.
MCF-7 cells are in a cell culture medium identical to that of Example 5 and are seeded in 6-well plates at 150 000 cells per well with three wells per treatment condition. […] Tamoxifen is used as a positive control for 3α-fluoro-5α-hydroxy-6β-[2-(1H-imidazol-4-yl)ethylamino]cholestane and 5α-hydroxy-6β-[2-(1H-imidazol-4-yl)ethylamino]cholestan-3β-ol (1 μM for all molecules).
After 24 hours of treatment, the media are collected and lipid extracts are prepared from the cell pellets by extraction with 100 μL of chloroform, 400 μL of methanol, and 300 μL of water.
The lipid extracts are analyzed by thin layer chromatography (TLC) using ethyl acetate (EtOAc) as eluent. The analysis is performed with a plate reader and then by autoradiography.

T1 sequence (Q15125 whole entry): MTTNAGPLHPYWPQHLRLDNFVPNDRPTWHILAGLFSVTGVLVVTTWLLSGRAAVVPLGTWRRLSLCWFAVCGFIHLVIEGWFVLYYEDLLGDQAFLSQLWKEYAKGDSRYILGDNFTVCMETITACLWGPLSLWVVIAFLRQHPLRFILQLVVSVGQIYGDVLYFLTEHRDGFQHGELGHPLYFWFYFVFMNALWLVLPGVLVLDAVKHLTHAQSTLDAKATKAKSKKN
T1 sequence (Q9UBM7 whole entry): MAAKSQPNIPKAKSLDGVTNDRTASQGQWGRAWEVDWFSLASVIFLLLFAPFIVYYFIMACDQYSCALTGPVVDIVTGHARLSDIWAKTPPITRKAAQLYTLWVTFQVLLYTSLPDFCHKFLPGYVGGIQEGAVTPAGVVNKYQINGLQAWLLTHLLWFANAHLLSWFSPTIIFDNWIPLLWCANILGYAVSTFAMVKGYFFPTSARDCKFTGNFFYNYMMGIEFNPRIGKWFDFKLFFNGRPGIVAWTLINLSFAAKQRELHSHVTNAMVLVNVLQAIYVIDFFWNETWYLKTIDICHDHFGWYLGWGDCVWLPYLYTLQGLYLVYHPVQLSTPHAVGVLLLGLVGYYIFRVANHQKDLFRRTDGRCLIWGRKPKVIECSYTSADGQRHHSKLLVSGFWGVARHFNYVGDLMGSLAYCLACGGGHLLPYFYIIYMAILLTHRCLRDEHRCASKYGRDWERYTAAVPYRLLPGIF

With `CC(C)CCC[C@@H](C)[C@H]1CC[C@H]2[C@@H]3C[C@@H](NCCc4c[nH]cn4)[C@@]4(O)C[C@@H](F)CC[C@]4(C)[C@H]3CC[C@]12C` [DX111, 3β-fluoro-5α-hydroxy-6β-[2-(1H-imidazol-4-yl)ethylamino]cholestane] the “inhibition of ChEH activity” value was “almost total inhibition”.

Source: patent US20230391817A1, “5ALPHA-HYDROXY-6BETA-[2-(1-H-IMIDAZOL-4-YL)-ETHYLAMINO]-CHOLESTAN-3BETA-OL ANALOGUES AND PHARMACEUTICAL COMPOSITIONS COMPRISING SAME FOR USE IN THE TREATMENT OF CANCER” (priority 2020, published 2023)
